# Laboratory results published in patent US20140378513A1, “USE OF FUNGICIDES IN LIQUID SYSTEMS” (priority 2011, published 2014).
# Key:
# [1] = tested on: Pest in infected Scenedesmus dimorphus culture; assay: Fungicide efficacy on pest control in infected microalgae culture; type: cell-based; settings: for Rating: rating scale of 0 to 3 by percent efficacy; for positive efficacy in a first trial confirmed in a second trial: Table 6; for Scenedesmus dimorphus efficacy: first trial; for Scenedesmus dimorphus Efficacy confirmation: second trial
# Excerpt: Failure to treat an infected culture results in the collapse and loss of the microalgae culture. […] Test fungicides are graded on a rating scale of 0 to 3 where a score of 0 represents an efficacy of between 0 and 25%, a score of 1 represents an efficacy of between 26 and 50%, a score of 2 represents an efficacy of between 51 and 75% and a score of 3 represents an efficacy of between 76 and 100%.
# Scenedesmus dimorphus = assay: Algae sensitivity screen, 96 well, growth rate by A750 over 8 days; type: cell-based
# Protocol: (§1) The total volume per well is 200 μl. Each chemical is tested in triplicate.
# Scenedesmus species = assay: as above; type: cell-based; settings: 8 days
# Protocol: as §1
# microalgae = assay: Ranges of microalgae toxicity (serial dilution of fungicide in growing culture); settings: range in which fungicide begins to show growth effects on microalgae
# Excerpt: The present disclosure provides for the introduction of fungicides at an effective concentration. Effective concentrations may be determined according to manufacturer's instructions or may be determined empirically. An effective concentration of a fungicide is not toxic to the microalgae being cultured in the liquid system. Methods to determine toxicity are known in the art and include serial dilutions of a test fungicide in a growing liquid culture of microalgae. One of skill in the art would understand that different microalgae may have different ranges of toxicity that may be determined by growth of a microalga in the presence of a serial dilution of a fungicide.
# Algae are screened for sensitivity to chemicals by preparing 180 ml of a log phase culture. The log phase culture is transferred into a 96 well microtiter plate at an absorbance at 750 nm (OD750 or A750) of ˜0.2. Twenty microliters of media is provided into the top row as a negative control, the middle six rows receive a 20 microliter dilution, which is a 10 fold dilution of the chemical at each transfer, of the chemical across an appropriate concentration gradient, and the bottom row receives 20 microliter of the solvent used to solubilize the pesticide alone as a control. The total volume per well is 200 μl. Each chemical is tested in triplicate. The growth of the algae is tracked daily by measuring the A750. After 8 days, the growth rate of the algae is measured by fitting the growth curve to a log model and deriving the maximum growth rate (r). The impact of the chemical is calculated by comparing the r of the algae at various dilutions of the pesticide to the control.
# Desmid species = assay: Algae sensitivity screen, 96 well, growth rate by A750 over 8 days; type: cell-based
# Protocol: as §1
# [2] = Tetradesmus dimorphus, read-out: Scenedesmus dimorphus efficacy
# [3] = log phase culture, 10 fold dilutions
compound,measurement,setting,value
CC(C)(C)C(O)(CCc1ccc(Cl)cc1)Cn1cncn1 (stereo not shown) [tebuconazole],Rating,[1],0 (a score of 0 represents an efficacy of between 0 and 25%)
"O=C(Nc1ccccc1)c1ccccc1I [benodanil, 2-Iodo-N-phenylbenzamide]",positive efficacy in a first trial confirmed in a second trial,[1],not confirmed
same,activity at 5 ppm,[1]; [2],38.7%
same,Rating,[1],0 (a score of 0 represents an efficacy of between 0 and 25%)
same,Scenedesmus dimorphus toxicity,Scenedesmus dimorphus; [3],0.3125-1.25 ppm
same,Scenedesmus species toxicity,Scenedesmus species; [3],0.3125-1.25 ppm
same,Ranges of Microalgae toxicity,microalgae,0.3125-1.25 ppm
CCCOC(=O)NCCCN(C)C [propamocarb],Rating,[1],0 (a score of 0 represents an efficacy of between 0 and 25%)
same,Scenedesmus dimorphus toxicity,Scenedesmus dimorphus; [3],15.63-62.5 ppm
same,Desmid species toxicity,Desmid species; [3],3.906-15.625 ppm
same,Scenedesmus species toxicity,Scenedesmus species; [3],3.906-15.63 ppm
same,Ranges of Microalgae toxicity,microalgae,3.906-62.5 ppm
"OC(c1ccc(Cl)cc1)(c1cncnc1)c1ccccc1Cl (stereo not shown) [fenarimol, (2-chlorophenyl)-(4-chlorophenyl)-pyrimidin-5-ylmethanol]",positive efficacy in a first trial confirmed in a second trial,[1],not confirmed
same,activity at 2 ppm,[1]; [2],31%
same,Rating,[1],0 (a score of 0 represents an efficacy of between 0 and 25%)
same,Scenedesmus dimorphus toxicity,Scenedesmus dimorphus; [3],0.0489-0.195 ppm
same,Scenedesmus species toxicity,Scenedesmus species; [3],0.0489-0.195 ppm
same,Ranges of Microalgae toxicity,microalgae,0.0489-0.195 ppm
CCCN(CC)CC1COC2(CCC(C(C)(C)C)CC2)O1 (stereo not shown) [spiroxamine],Rating,[1],0 (a score of 0 represents an efficacy of between 0 and 25%)
same,Scenedesmus dimorphus toxicity,Scenedesmus dimorphus; Scenedesmus dimorphus,0.0625-0.250 ppm
same,Desmid species toxicity,Desmid species; Desmid species,0.250-1.0 ppm
same,Scenedesmus species toxicity,Scenedesmus species; Scenedesmus species,0.250-1.0 ppm
same,Ranges of Microalgae toxicity,microalgae,0.0625-1.0 ppm
mancozeb,Rating,[1],0 (a score of 0 represents an efficacy of between 0 and 25%)
"CCO[PH](=O)O [fosetyl-aluminum (100 mg), fosetyl-aluminum]",Rating,[1],0 (a score of 0 represents an efficacy of between 0 and 25%)
O=CNC(N1CCN(C(NC=O)C(Cl)(Cl)Cl)CC1)C(Cl)(Cl)Cl (stereo not shown) [triforin],Rating,[1],0 (a score of 0 represents an efficacy of between 0 and 25%)
O=C1C2CC=CCC2C(=O)N1SC(Cl)(Cl)Cl (stereo not shown) [captan],Rating,[1],0 (a score of 0 represents an efficacy of between 0 and 25%)
same,Scenedesmus dimorphus toxicity,Scenedesmus dimorphus; [3],1.953-7.813 ppm
same,Desmid species toxicity,Desmid species; [3],31.25-125 ppm
same,Scenedesmus species toxicity,Scenedesmus species; [3],31.25-125 ppm
same,Ranges of Microalgae toxicity,microalgae,1.953-125 ppm
"O=[N+]([O-])C(Br)(CO)CO [bronopol, 2-bromo-2-nitropropane-1,3-diol]",activity at 5 ppm,[1]; [2],14.3%
same,Rating,[1],0 (a score of 0 represents an efficacy of between 0 and 25%)
"Cc1ccc(N(SC(F)(Cl)Cl)S(=O)(=O)N(C)C)cc1 [tolylfluanid, N-[dichloro(fluoro)methyl]sulfanyl-N-(dimethylsulfamoyl)-4-methylaniline]",Scenedesmus dimorphus efficacy,"[1]; 5 ppm, result in words",5 ppm Delayed Crash
same,Rating,[1],0 (a score of 0 represents an efficacy of between 0 and 25%)
same,Scenedesmus dimorphus toxicity,Scenedesmus dimorphus; Scenedesmus dimorphus,1.56-6.25 ppm
same,Desmid species toxicity,Desmid species; Desmid species,6.25-25.0 ppm
same,Scenedesmus species toxicity,Scenedesmus species; Scenedesmus species,6.25-25.0 ppm
same,Ranges of Microalgae toxicity,microalgae,1.56-25.0 ppm
CON=C(C(=O)OC)c1ccccc1CON=C(C)c1cccc(C(F)(F)F)c1 [trifloxystrobin],Rating,[1],0 (a score of 0 represents an efficacy of between 0 and 25%)
OC(Cc1ccccc1Cl)(Cn1nc[nH]c1=S)C1(Cl)CC1 (stereo not shown) [prothioconazole],Rating,[1],0 (a score of 0 represents an efficacy of between 0 and 25%)
O=C(Nc1ccccc1-c1ccc(Cl)cc1)c1cccnc1Cl [boscalid],Rating,[1],0 (a score of 0 represents an efficacy of between 0 and 25%)
"CCCCCCCCCCCCNC(=N)N [dodine, dodecylguanidinium acetate]",Scenedesmus dimorphus Efficacy confirmation,[1]; @ 2 ppm,100% @ 2 ppm
same,activity at 2 ppm,[1]; [2],93.9%
same,Rating,[1],3 (a score of 3 represents an efficacy of between 76 and 100%)
CO/N=C(/C(=O)OC)c1ccccc1COc1ccccc1C [kresoxim-methyl],Rating,[1],0 (a score of 0 represents an efficacy of between 0 and 25%)
COCC(=O)N(c1c(C)cccc1C)C(C)C(=O)OC (stereo not shown) [metalaxyl],Rating,[1],0 (a score of 0 represents an efficacy of between 0 and 25%)
CC1(C(=O)Nc2ccc(O)c(Cl)c2Cl)CCCCC1 [fenhexamid],Rating,[1],0 (a score of 0 represents an efficacy of between 0 and 25%)
same,Desmid species toxicity,Desmid species; Desmid species,15.63-62.5 ppm
same,Ranges of Microalgae toxicity,microalgae,15.63-62.5 ppm
"CSC(=O)c1cccc2nnsc12 [benzo(1,2,3)thiadiazole-7-carbothioic acid-5-methyl ester]",Scenedesmus dimorphus efficacy,"[1]; @ 0.8 ppm, percent of growth of treated culture compared to uninfected control growth rate",17.5% @ 0.8 ppm
"COC(=O)NC(=S)Nc1ccccc1NC(=S)NC(=O)OC [thiophanate-methyl, methyl N-[[2-(methoxycarbonylcarbamothioylamino)phenyl]carbamothioyl]carbamate]",activity at 5 ppm,[1]; [2],9.6%
same,Rating,[1],0 (a score of 0 represents an efficacy of between 0 and 25%)
CO/C=C(/C(=O)OC)c1ccccc1Oc1cc(Oc2ccccc2C#N)ncn1 [azoxystrobin],Rating,[1],0 (a score of 0 represents an efficacy of between 0 and 25%)
"CCCC1COC(Cn2cncn2)(c2ccc(Cl)cc2Cl)O1 (stereo not shown) [propiconazole, 1-[[2-(2,4-dichlorophenyl)-4-propyl-1,3-dioxolan-2-yl]methyl]-1,2,4-triazole]",Scenedesmus dimorphus Efficacy confirmation,[1]; @ 0.8 ppm,18.6% @ 0.8 ppm
same,activity at 0.32 ppm,[1]; [2],30.6%
same,Rating,[1],0 (a score of 0 represents an efficacy of between 0 and 25%)
CC1CN(C2CCCCCCCCCCC2)CC(C)O1 (stereo not shown) [dodemorph],Rating,[1],0 (a score of 0 represents an efficacy of between 0 and 25%)
same,Scenedesmus dimorphus toxicity,Scenedesmus dimorphus; [3],0.195-0.781 ppm
same,Scenedesmus species toxicity,Scenedesmus species; [3],0.195-0.781 ppm
same,Ranges of Microalgae toxicity,microalgae,0.195-0.781 ppm
dinocap,Rating,[1],0 (a score of 0 represents an efficacy of between 0 and 25%)
same,Scenedesmus dimorphus toxicity,Scenedesmus dimorphus; [3],0.0039-0.0156 ppm
same,Scenedesmus species toxicity,Scenedesmus species; [3],0.0156-0.0625 ppm
same,Ranges of Microalgae toxicity,microalgae,0.0039-0.0625 ppm
"N#Cc1sc2c(=O)c3ccccc3c(=O)c=2sc1C#N [dithianon, 5,10-dioxobenzo[g][1,4]benzodithiine-2,3-dicarbonitrile]",Scenedesmus dimorphus Efficacy confirmation,[1]; @ 5 ppm,52.2% @ 5 ppm
same,activity at 5 ppm,[1]; [2],37%
same,Rating,[1],2 (a score of 2 represents an efficacy of between 51 and 75%)
same,Scenedesmus dimorphus toxicity,Scenedesmus dimorphus; Scenedesmus dimorphus,0.625-2.5 ppm
same,Ranges of Microalgae toxicity,microalgae,0.625-2.5 ppm
"N#CC(Br)(Br)C(N)=O [dibromocyanoacetamide, 2,2-dibromo-2-cyanoacetamide]",positive efficacy in a first trial confirmed in a second trial,[1],not confirmed
same,activity at 5 ppm,[1]; [2],35.4%
same,Rating,[1],0 (a score of 0 represents an efficacy of between 0 and 25%)
CCC(C)c1cc([N+](=O)[O-])cc([N+](=O)[O-])c1OC(=O)C=C(C)C (stereo not shown) [binapacryl],Scenedesmus dimorphus toxicity,Scenedesmus dimorphus; [3],0.125-0.5 ppm
same,Scenedesmus species toxicity,Scenedesmus species; [3],0.125-0.5 ppm
same,Ranges of Microalgae toxicity,microalgae,0.125-0.5 ppm
"Cc1cc(C2CC2)nc(Nc2ccccc2)n1 [cyprodinil, 4-Cyclopropyl-6-methyl-N-phenylpyrimidin-2-amine]",activity at 2 ppm,[1]; [2],8.1%
same,Rating,[1],0 (a score of 0 represents an efficacy of between 0 and 25%)
CCNC(=O)NC(=O)/C(C#N)=N/OC [cymoxanil],Rating,[1],0 (a score of 0 represents an efficacy of between 0 and 25%)
